Biological target: T1, human PPAR α (Homo sapiens, UniProt Q07869)
T1 construct: expressed in transfected cells; host or cells: HepG2 (ATCC HB-8065) or 293T cells (ATCC CRL-1573)
T1 sequence (Q07869 239-466 limits assumed): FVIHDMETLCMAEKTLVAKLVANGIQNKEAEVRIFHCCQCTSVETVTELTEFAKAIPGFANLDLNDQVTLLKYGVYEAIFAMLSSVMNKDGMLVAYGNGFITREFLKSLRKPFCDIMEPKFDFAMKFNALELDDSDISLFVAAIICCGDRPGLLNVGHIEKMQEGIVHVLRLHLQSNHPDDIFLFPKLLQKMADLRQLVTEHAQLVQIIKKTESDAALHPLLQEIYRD
Assay: Exogeneous PPAR α agonist assay (GAL4 DNA binding domain/PPAR α ligand binding domain, luciferase) in 293T cells
Format: cell-based
Set-up: scale not given here
Details: 25 μM compound, 48 hours, luciferase activity increase relative to the control
Method: Step 1) Exogeneous PPAR α Agonist Assay
Cross-activation assay of the compounds of Examples 1 to 134 against human PPAR α was carried out using a DNA construct of PPAR α including its ligand binding domain and GAL4 DNA binding domain (Sher et al., Biochemistry 32, 5598-5604, 1993) to analyze whether any of the compounds binds to the ligand binding domain of PPAR α expressed by the construct to affect the PPAR α activity. When the GAL4 DNA binding domainm which is fused with PPAR α ligand binding domain, binds to UAS (upstream activation sequence) of firefly-luciferase, the luciferase is expressed. Therefore, the effect of each of the compounds of Examples on PPAR α activation can be evaluated by analyzing the activation of luciferase.
Specifically, 2×10^4 of HepG2 (ATCC HB-8065) or 293T cells (ATCC CRL-1573) were aliquotted into each well of a 96-well plate and cultured for overnight at 37° C. in a CO2 incubator (culture condition: DMEM, 10% FBS and 1% antibiotics).
The transformation of PPAR α DNA was traced as follows. First, a mixture of the following ingredients in amounts per well; Solution A (Promega) containing 50 ng of full length human PPAR α DNA, 50 ng of firefly-luciferase construct, 5 ng of Renilla-luciferase construct, 1.0 μl of PLUS™ reagent, and 8.3 μl of a serum-free medium containing no antibiotics; was prepared and kept at room temperature for 15 min. Solution B, which contained 0.5 μl of Lipofectamine™ reagent and 9.5 μl of serum-free medium without antibiotics per well, and Solution C, which contained 50 μl of serum-free medium per well), were prepared. Solutions A, B and C were mixed together to prepare lipofectamin-DNA complex, and the mixture was kept at room temperature for 15 min. Single layer of cells on each well of a 96-well plate were washed with serum-free DMEM, 70 μl of lipofectamine-DNA complex prepared above was added thereto, the plate was incubated at 37° C. in a 5% CO2 incubator for 3 hours to transform the cells, and […] of a diluted solution of each of the compounds of Examples 1 to 134 per well was added to each well to a final concentration 25 μM, and incubated at 37° C. in a CO2 incubator for 48 hours. Then, the medium was removed, 50 μl of passive lysis buffer (Promega) was added thereto, and the plate was shook at room temperature for 20 min to lysis cells. 40 μl of Luciferase Assay reagent of Dual Luciferase Kit […] per 20 μl of cell lysis buffer was added to the plate, followed by reacting at 20° C. for 8 seconds, and 40 μl of Stop & Glo reagent (Promega) as a stop solution was added thereto to quench the reaction. The luminescence intensities of F-luciferase and R-luciferase were measured with MicroLumat Plus (Berthord Technology).

Row | Activity at 25 μM Step 1 293T cell | Compound
1 | 1 | Cc1oc(-c2ccc(C(F)(F)F)cc2)nc1CCOc1cccc(CN(CC(=O)O)S(=O)(=O)N2CCN(C)CC2)c1 [Example 89, [N-(4-methyl-1-piperazinyl)sulfonyl-N-[3-[2-[2-(4-trifluoromethylphenyl)-5-methyloxazol-4-yl]ethoxy]benzyl]amino]acetic acid]
2 | 3 | Cc1oc(-c2ccccc2)nc1CCOc1ccc(CN(CC(=O)O)S(=O)(=O)N(C)c2ccc(Cl)cc2)cc1 [Example 109, [N—[[N-methyl-N-(4-chlorophenyl)]amino]sulfonyl-N-[4-[2-(2-phenyl-5-methyloxazol-4-yl)ethoxy]benzyl]amino]acetic acid]
3 | 2 | Cc1oc(-c2ccccc2)nc1COc1cccc(CN(CC(=O)O)S(=O)(=O)N(C)c2ccc(Cl)cc2)c1 [Example 18, [N—[[N-methyl-N-(4-chlorophenyl)]amino]sulfonyl-N-[3-[(2-phenyl-5-methyloxazol-4-yl)methoxy]benzyl]amino]acetic acid]
4 | 2 | Cc1oc(-c2ccccc2)nc1CCOc1ccc(CN(CC(=O)O)S(=O)(=O)N2CCc3ccccc32)cc1 [Example 116]
5 | 2 | Cc1oc(-c2cccs2)nc1COc1cccc(CN(CC(=O)O)S(=O)(=O)N(C)C)c1 [Example 12, [N—(N,N-dimethylamino)sulfonyl-N-[3-[[2-(thiophen-2-yl)-5-methyloxazol-4-yl]methoxy]benzyl]amino]acetic acid]
6 | 1 | Cc1oc(-c2cccs2)nc1CCOc1ccc(CN(CC(=O)O)S(=O)(=O)N(C)C)cc1 [Example 104, [N—(N,N-dimethylamino)sulfonyl-N-[4-[2-[2-(thiophen-2-yl)-5-methyloxazol-4-yl]ethoxy]benzyl]amino]acetic acid]
7 | 1 | Cc1ccc(-c2nc(CCOc3cccc(CN(CC(=O)O)S(=O)(=O)N4CCCC4)c3)c(C)o2)cc1 [Example 84, [N-(pyrrolidinyl)sulfonyl-N-[3-[2-[2-(4-methylphenyl)-5-methyloxazol-4-yl]ethoxy]benzyl]amino]acetic acid]
8 | 1 | Cc1oc(-c2ccccc2)nc1CCOc1ccc(CN(CC(=O)O)S(=O)(=O)N(C)C)cc1 [Example 98, [N—(N,N-dimethylamino)sulfonyl-N-[4-[2-(2-phenyl-5-methyloxazol-4-yl)ethoxy]benzyl]amino]acetic acid]
9 | 3 | Cc1ccc(-c2nc(COc3cccc(CN(CC(=O)O)S(=O)(=O)N(C)C)c3)c(C)o2)cc1 [Example 4, [N—[(N,N-dimethylamino)sulfonyl]-N-[3-[[2-(4-methylphenyl)-5-methyloxazol-4-yl]methoxy]benzyl]amino]acetic acid]
10 | 3 | Cc1ccc(-c2nc(CCOc3ccc(CN(CC(=O)O)S(=O)(=O)N4CCc5ccccc54)cc3)c(C)o2)cc1 [Example 117, [N-(indolinyl)sulfonyl-N-[4-[2-[2-(4-methylphenyl)-5-methyloxazol-4-yl]ethoxy]benzyl]amino]acetic acid]
11 | 4 | Cc1ccc(-c2nc(COc3ccc(CN(CC(=O)O)S(=O)(=O)N4CCCc5ccccc54)cc3)c(C)o2)cc1 [Example 58, [N-(1,2,3,4-tetraquinolinyl)sulfonyl-N-[4-[[2-(4-methylphenyl)-5-methyloxazol-4-yl]methoxy]benzyl]amino]acetic acid]
12 | 2 | Cc1oc(-c2ccc(C(F)(F)F)cc2)nc1COc1ccc(CN(CC(=O)O)S(=O)(=O)N(C)C)cc1 [Example 40, [N—(N,N-dimethylamino)sulfonyl-N-[4-[[2-(4-trifluoromethylphenyl)-5-methyloxazol-4-yl]methoxy]benzyl]amino]acetic acid]
13 | 2 | Cc1ccc(-c2nc(COc3ccc(CN(CC(=O)O)S(=O)(=O)N(C)c4ccccc4)cc3)c(C)o2)cc1 [Example 46, [N—[(N-methyl-N-phenyl)amino]sulfonyl-N-[4-[[2-(4-methylphenyl)-5-methyloxazol-4-yl]methoxy]benzyl]amino]acetic acid]
14 | 2 | Cc1ccc(-c2nc(COc3cccc(CN(CC(=O)O)S(=O)(=O)N(C)c4ccc(Cl)cc4)c3)c(C)o2)cc1 [Example 19, [N—[[N-methyl-N-(4-chlorophenyl)]amino]sulfonyl-N-[3-[[2-(4-methylphenyl)-5-methyloxazol-4-yl]methoxy]benzyl]amino]acetic acid]
15 | 1 | Cc1oc(-c2ccc(C(F)(F)F)cc2)nc1CCOc1cccc(CN(CC(=O)O)S(=O)(=O)N2CCCC2)c1 [Example 85, [N-(pyrrolidinyl)sulfonyl-N-[3-[2-[2-(4-trifluoromethylphenyl)-5-methyloxazol-4-yl]ethoxy]benzyl]amino]acetic acid]
16 | 2 | Cc1ccc(-c2nc(COc3ccc(CN(CC(=O)O)S(=O)(=O)N(C)C)cc3)c(C)o2)cc1 [Example 39, [N—(N,N-dimethylamino)sulfonyl-N-[4-[[2-(4-methylphenyl)-5-methyloxazol-4-yl]methoxy]benzyl]amino]acetic acid]
17 | 2 | Cc1oc(-c2ccc(C(F)(F)F)cc2)nc1CCOc1ccc(CN(CC(=O)O)S(=O)(=O)N(C)c2ccc(Cl)cc2)cc1 [Example 114, [N—[[N-methyl-N-(4-chlorophenyl)]amino]sulfonyl-N-[4-[2-[2-(4-trifluoromethylphenyl)-5-methyloxazol-4-yl]ethoxy]benzyl]amino]acetic acid]
18 | 2 | Cc1ccc(-c2nc(COc3cccc(CN(CC(=O)O)S(=O)(=O)N(C)c4ccccc4)c3)c(C)o2)cc1 [Example 15, [N—[(N-methyl-N-phenyl)amino]sulfonyl-N-[3-[[2-(4-methylphenyl)-5-methyloxazol-4-yl]methoxy]benzyl]amino]acetic acid]
19 | 2 | Cc1oc(-c2ccccc2)nc1CCOc1cccc(CN(CC(=O)O)S(=O)(=O)N(C)C)c1 [Example 61, [N—(N,N-dimethylamino)sulfonyl-N-[3-[2-(2-phenyl-5-methyloxazol-4-yl)ethoxy]benzyl]amino]acetic acid]
20 | 2 | Cc1oc(-c2ccccc2)nc1COc1cccc(CN(CC(=O)O)S(=O)(=O)N(C)C)c1 [Example 3, [N—[(N,N-dimethylamino)sulfonyl]-N-[3-[(2-phenyl-5-methyloxazol-4-yl)methoxy]benzyl]amino]acetic acid]
21 | 2 | Cc1oc(-c2ccccc2)nc1COc1cccc(CN(CC(=O)O)S(=O)(=O)N(C)c2ccccc2)c1 [Example 14, [N—[(N-methyl-N-phenyl)amino]sulfonyl-N-[3-[(2-phenyl-5-methyloxazol-4-yl)methoxy]benzyl]amino]acetic acid]
22 | 2 | Cc1ccc(-c2nc(CCOc3ccc(CN(CC(=O)O)S(=O)(=O)N4CCCc5ccccc54)cc3)c(C)o2)cc1 [Example 121, [N-(1,2,3,4-tetrahydroquinolinyl)sulfonyl-N-[4-[2-[2-(4-methylphenyl)-5-methyloxazol-4-yl]ethoxy]benzyl]amino]acetic acid]
23 | 3 | Cc1oc(-c2ccccc2)nc1COc1ccc(CN(CC(=O)O)S(=O)(=O)N(C)c2ccc(Cl)cc2)cc1 [Example 49, [N—[[N-methyl-N-(4-chlorophenyl)]amino]sulfonyl-N-[4-[(2-phenyl-5-methyloxazol-4-yl)methoxy]benzyl]amino]acetic acid]
24 | 2 | Cc1oc(-c2ccccc2)nc1COc1ccc(CN(CC(=O)O)S(=O)(=O)N2CCc3ccccc32)cc1 [Example 53, [N-(indolinyl)sulfonyl-N-[4-[(2-phenyl-5-methyloxazol-4-yl)methoxy]benzyl]amino]acetic acid]

Source: patent US20070254882A1, “Sulfamide Derivatives and Pharmaceutical Composition for Upregulation of Lipid Metabolism Comprising Same” (CRYSTAL GENOMICS, INC., priority 2004, published 2007)
